These results are taken from patent US20260297060A1, “COMPOUNDS FOR THE DEGRADATION OF MUTANT BRAF” (C4 THERAPEUTICS, INC., priority 2023, published 2026).

One series has as its system A375 tumors. Description: In vivo efficacy, A375 xenograft tumor volume (Example 7). Set-up: species or system human A375 melanoma xenograft in female BALB/c nude mice. The conditions noted are these: oral, FIG. 14; for tumor regressions in the xenograft model: 10 mg/kg BID, A375 xenografts; for antitumor response compared with comparators dabrafenib or encorafenib: A375 human melanoma xenografts. As for the experimental part: FIG. 14 is a line graph showing in vivo efficacy of dabrafenib, Compound 141, Compound 118, Compound 156, and Compound 180 in the treatment of female BALB/c nude mice bearing A375 tumors. Mice were treated with vehicle (10 μL/g, p.o., BID), dabrafenib (100 mg/kg, p.o., QD), Compound 141 (10 mg/kg, p.o., QD), Compound 141 (10 mg/kg, p.o., BID), Compound 118 (10 mg/kg, p.o., BID), Compound 156 (10 mg/kg, p.o., BID), or Compound 180 (10 mg/kg, p.o., BID) by oral gavage (p.o.). Data points represent group mean change in tumor volume. Error bars represent standard error of the mean (SEM). The x-axis is the time measured in days and the y-axis is A375 tumor volume measured in mm^3. The experiment was conducted as described in Example 7.

Series [1] in a line: Example 7 pharmacokinetics assay for efficacy study (plasma, liver). It is filed as in vivo, BALB/c nude mice. The conditions noted are these: mouse, po, 10 mg/kg, p.o. As for the experimental part: For efficacy study, agents were tested in the A375 human melanoma xenografts. Compound 118, Compound 156, and Compound 180 were administered to BALB/c nude mice bearing A375 xenografts from day 0 and dosed p.o. twice per day (BID). Compound 141 was administered from day 0 and dosed p.o. twice per day (BID) or dosed p.o. daily (QD) from day 1. Compound 141, Compound 118, Compound 156, and Compound 180 were dosed at 10 mg/kg for 14 days. The known BRAF inhibitor Dabrafenib was used as a positive control. Dabrafenib was administered from day 1 and dosed p.o. daily (QD) for 14 days and dosed at 100 mg/kg.
The plasma samples were collected at predetermined time points for PK analysis. The mice were euthanized at predetermined time points post the treatment. The blood samples were collected into the 1.5 mL Eppendorf tubes containing 15 μL of 0.5 M EDTA-K2. And then the anticoagulant blood samples were centrifuged at 2,500 g at 4° C. for 15 minutes. The plasma samples were separated into 2 aliquots. The 1st was used for PK analysis, and the 2nd served as backup. The samples were stored at −80° C. before bioanalysis.
Liver samples were collected at predetermined time points for PK analysis. The left lobe of the liver was dissected out and split into 2 parts. The 1st part was used for PK analysis and the 2nd part served as the backup for the study. The samples were transferred into pre-labeled tubes and quickly froze in liquid nitrogen within 2 minutes after dissection. The samples were stored at −80° C. before bioanalysis.
The harvested plasma and liver samples were processed for pharmacokinetics analysis by LC-MS/MS with a concentration range of 0.500~500 ng/mL for Dabrafenib in plasma and liver homogenate, 20.0~20,000 ng/mL for Compound 141, Compound 180 and Compound 118 in plasma and liver, 10.0~10,000 ng/mL for Compound 156 in plasma and liver.

Setting [2] is: liver, BID × 14 days, read-out: Concentration in Liver (mean ± SEM).
[3] abbreviates: plasma, BID × 14 days, read-out: Concentration in Plasma (mean ± SEM).

Molecules are shown by their SMILES. Read-outs that look alike come from different tables or passages of the source.

Take `CCN(C)S(=O)(=O)Nc1ccc(F)c(Oc2ccc3ncc(OCC4CCN(C5CCC(c6cc7c(cc6F)c(N6CCC(=O)NC6=O)nn7C)CC5)CC4)nc3c2)c1C#N` (single isomer, unassigned) [Compound 118, 7-[2-cyano-3-[[ethyl(methyl)sulfamoyl]amino]-6-fluoro-phenoxy]-2-[[1-[4-[3-(2,4-dioxohexahydropyrimidin-1-yl)-5-fluoro-1-methyl-indazol-6-yl]cyclohexyl]-4-piperidyl]methoxy]quinoxaline]: in the series with A375 tumors, the “tumor regressions in the xenograft model” value was “profound tumor regressions” and the “antitumor response compared with comparators dabrafenib or encorafenib” value is listed as “more robust antitumor response”. Besides, the concentration at 6 h in series [1] (setting [2]) stood at 102000 ± 1600 ng/g. Further, the concentration at 6 h in series [1] (setting [3]) was found to be 4160 ± 503 ng/mL.

As to `CCN(C)S(=O)(=O)Nc1ccc(F)c(Oc2ccc3ncc(C4CC5(CCN(C6CCC(c7cc8c(cc7F)c(N7CCC(=O)NC7=O)nn8C)CC6)CC5)C4)nc3c2)c1C#N` (single isomer, unassigned) [Compound 180, 7-[2-cyano-3-[[ethyl(methyl)sulfamoyl]amino]-6-fluoro-phenoxy]-2-[7-[4-[3-(2,4-dioxohexahydropyrimidin-1-yl)-5-fluoro-1-methyl-indazol-6-yl]cyclohexyl]-7-azaspiro[3.5]nonan-2-yl]quinoxaline], in the series with A375 tumors, the “tumor regressions in the xenograft model” value is “profound tumor regressions” and the “antitumor response compared with comparators dabrafenib or encorafenib” value is “more robust antitumor response”. In series [1] (setting [2]), the concentration at 6 h turned out to be 2400 ± 425 ng/g. Moreover, the concentration at 6 h in series [1] (setting [3]) is 1920 ± 363 ng/mL.

As to `CCN(C)S(=O)(=O)Nc1ccc(F)c(Oc2ccc3ncn(C4CC5(CCN(C6CC7(C6)CN(c6cc8c(cc6F)c(N6CCC(=O)NC6=O)nn8C)C7)CC5)C4)c(=O)c3c2)c1C#N` (stereo not drawn) [Compound 141, 6-[2-cyano-3-[[ethyl(methyl)sulfamoyl]amino]-6-fluoro-phenoxy]-3-[7-[2-[3-(2,4-dioxohexahydropyrimidin-1-yl)-5-fluoro-1-methyl-indazol-6-yl]-2-azaspiro[3.3]heptan-6-yl]-7-azaspiro[3.5]nonan-2-yl]-4-oxo-quinazoline], the “tumor regressions in the xenograft model” value with A375 tumors was “profound tumor regressions”. Also, the “antitumor response compared with comparators dabrafenib or encorafenib” value in the series on A375 tumors is recorded as “more robust antitumor response”. Besides, the concentration at 6 h came to 6570 ± 341 ng/g in series [1] (setting [2]); 7500 ± 286 ng/g in series [1] (liver, QD × 14 days, read-out: Concentration in Liver (mean ± SEM)); 8750 ± 907 ng/mL in series [1] (setting [3]); 11000 ± 474 ng/mL in series [1] (plasma, QD × 14 days, read-out: Concentration in Plasma (mean ± SEM)).

Turning to `CCN(C)S(=O)(=O)Nc1ccc(F)c(Oc2ccc3ncn(C4CC5(CCN(C6CCN(c7cc8c(cc7F)c(N7CCC(=O)NC7=O)nn8C)CC6)CC5)C4)c(=O)c3c2)c1C#N` [Compound 156, 6-[2-cyano-3-[[ethyl(methyl)sulfamoyl]amino]-6-fluoro-phenoxy]-3-[7-[1-[3-(2,4-dioxohexahydropyrimidin-1-yl)-5-fluoro-1-methyl-indazol-6-yl]-4-piperidyl]-7-azaspiro[3.5]nonan-2-yl]-4-oxo-quinazoline], in the series on A375 tumors, the “tumor regressions in the xenograft model” value was “profound tumor regressions”. In addition, the “antitumor response compared with comparators dabrafenib or encorafenib” value with A375 tumors is on record as “more robust antitumor response”. Further, the concentration at 6 h in series [1] (setting [2]) was 1840 ± 305 ng/g; in series [1] (setting [3]), 1870 ± 359 ng/mL.
